Literature values, collected in patent US20240325308A1, “AMNIOTIC FLUID STABILIZED COMPOSITIONS AND METHODS FOR IN UTERO DELIVERY OF THERAPEUTIC AGENTS” (The Trustees of the University of Pennsylvania, priority 2021, published 2024).

System: fetal lung
Conditions: vitelline vein injection, gestational age E16 fetuses

**Q.** With CCCCCCCCCCCCC(O)CN(CCOCCN(CC(O)CCCCCCCCCCCC)CC(O)CCCCCCCCCCCC)CCN1CCN(CCOCCN(CC(O)CCCCCCCCCCCC)CC(O)CCCCCCCCCCCC)CC1 (stereo not shown) [B-4, 1,1′-((2-(2-(4-(2-((2-(2-(bis(2-hydroxytetradecyl)amino)ethoxy)ethyl)(2-hydroxytetradecyl)amino)ethyl)piperazin-1-yl)ethoxy)ethyl)azanediyl)bis(tetradecan-2-ol)] as the compound, how does the “Fetal lung delivery of LNPs formulated with the ionizable lipid” value read?
**A.** highest fetal lung delivery
